Experimental data taken from US6664040B2, “Compositions and methods for delivery of a molecule into a cell” (priority 2000, dated 2003).

Assays:
[1] = Dynamic light scattering (DLS); type: physicochemical
Description: DLS was performed on a DynaPro-801 Molecular Sizing Instrument. Protein solutions (250 μl) prepared either in water or in 50% aqueous TFE at a concentration of ˜3 mg ml^−1 (sVpr) or 4 mg ml^−1 (Vpr^47-96) were injected through a 0.1-μm Whatman membrane filter. Samples were illuminated by a semiconductor laser (780 nm, 25 mW) generated by a miniature solid-state Ga1-yAlyAs-diode. The photons scattered at a 90° angle by the particles in the sample were collected by an avalanche photodiode, and the time-dependent fluctuation in intensity of the scattered light was analyzed. The translational diffusion coefficient DT was calculated with the manufacturer's software (Dynamics, version 2.1). DT was then used to calculate the degree of sample polydispersity and the hydrodynamic radius of gyration RH of the particles using the Stokes-Einstein equation: (RH=(kbT)*(6πηDT)^−1 where kb=Boltzman's constant, T=absolute temperature in Kelvin, and η=solvent viscosity). Mr was calculated on a standard curve (Mr vs. RH) supplied by the manufacturer. Ten continuous measurements were made for each sample.

[2] = tested on: rat yolk choriocarcinoma L2-RYC cells; experiment: Cellular uptake of 125I-labeled peptides; type: cell-based
Description: sVpr and Vpu^32-81 were iodinated with the chloramine-T method. Briefly, ˜20 μg of peptides were reacted with 5.5×10^7 Bq (1.5 mCi) Na^125I. Free iodine was removed by gel filtration through a Dowex ion-exchange column saturated with bovine serum albumin (BSA). For studies on cellular uptake, rat yolk choriocarcinoma L2-RYC cells were grown in Dulbecco's modified Eagle's medium (DMEM) with 10% (v/v) fetal bovine serum (FBS) to 75% confluence on 24-well plates. Cells were washed once with phosphate-buffered saline (PBS) and incubated in serum-free DMEM supplemented with 0.1% BSA and ^125I-labeled sVpr or, as a negative control, ^125I-labeled Vpu^32-81. Radioactive peptides were added to the medium at a specific activity of 18 kBq ml^−1. In parallel, cells were also treated with a 100-fold excess of unlabeled sVpr or Vpu^32-81. Cells were incubated for specified times at 37° C., and the distribution of intra- and extracellular radioactivity was determined as described (50). […] Radioactivity was determined in triplicate in the medium and cell layer. To correct for nonspecific binding of peptides to the cell surface, the cell layer radioactivity determined at time point 0 min (time when radiolabeled peptides were added to the medium for less than 30 sec) was subtracted as background from the radioactivity detected in the cell layer.

Jurkat T cells [3] = experiment: sVpr uptake by Jurkat T cells (flow cytometry); type: cell-based, human
Description: (§1) Full length Vpr was chemically synthesized and fluorescently labeled, purified by reverse phase HPLC, and added to the extracellular media of various cell cultures. Flow cytometry and epifluorescence microscopy were employed to monitor cellular uptake of sVpr. The distribution of cells within different phases of the cell cycle was studied by To-Pro-3 dye staining of DNA followed by flow cytometric analysis.

Jurkat T cells [4] = experiment: Apoptosis induction in Jurkat T cells; type: cell-based, human; details: by 3 days
Jurkat T cells [5] = experiment: G2 cell cycle arrest in transduced Jurkat T cells; type: cell-based, human; details: transduced subpopulations
Description: as §1

[6] = tested on: peripheral blood mononuclear cells; experiment: Transduction of freshly isolated peripheral blood mononuclear cells; type: cell-based, human
Description: as §1

HIV-1 ΔVpr = HIV-1 ΔVpr replication in macrophages (RT activity) with sVpr in the extracellular medium; type: cell-based; details: monocyte-derived macrophages
cells [7] = experiment: Trypsin-insensitive cellular uptake at 37° C. or 4° C. (geometric mean fluorescence); type: cell-based; details: presence or absence of trypsin
Description: as §1

cells [8] = experiment: Transduction with and without urea denaturation (percent of cells FITC+); type: cell-based
Description: as §1

HIV-1 virions = experiment: Incorporation of sVpr into HIV-1 virions (western blot); type: cell-based; details: anti-Vpr and anti-p24
[9] = Solubility / absence of precipitation in aqueous solution; type: physicochemical
[10] = Immunization of rabbits with sVpr; type: in vivo, rabbit; details: used to generate polyclonal and monoclonal antibodies
Description: A rabbit polyclonal antiserum, R-96, was generated by immunization with sVpr.

[11] = target: synthetic Vpr (sVpr), full-length, sequence derived from the isolate HIV-1 NL4-3 (HIV-1 (isolate NL4-3)) (UniProt P12520); experiment: SDS-PAGE without reducing agent, silver stain; dimers prevented by DTT

Question: Which “hydrodynamic radius RH of major species (monomer, 94.2% abundance)” value ([1]; 50% TFE) does the source give for “Vpr^47-96: peptide comprising the C-terminal domain of sVpr from positions Tyr-47 to Ser-96” here?
Answer: 1.25

Question: And the “hydrodynamic radius RH” value ([1]; pure water (sVpr: 3.8 mg ml^−1, pH 3.0; components of 14% and 86% abundance))?
Answer: ~3 nm

Question: Which “level of intracellular peptide, maximum” value ([2]; 125I-labeled, within 2 hours, 37° C.) does the source give for “sVpr: synthetic full-length 96-amino acid HIV-1 Vpr, sequence derived from isolate HIV-1 NL4-3 (SEQ ID NO: 1), made by solid-phase peptide synthesis” here?
Answer: 8-10%

Question: What about the “uptake with 100-fold excess of unlabeled sVpr” value ([2]; 120 min) of the same substance?
Answer: not inhibited

Question: And the “transduction of Jurkat T cells” value (Jurkat T cells [3]; 7.5, 15, 30 μg/ml)?
Answer: dose-dependent fashion

Question: And the “Cy3-positive cells (uptake)” value (Jurkat T cells [3]; Jurkat T cells, at 5 min)?
Answer: > 75%

Question: And the apoptotic cells (Jurkat T cells [4])?
Answer: approximately 90%

Question: What about the “G2 cell cycle arrest” value (Jurkat T cells [5]) of the same substance?
Answer: induces a dose-dependent G2 cell cycle arrest

Question: What about the “transduction of CD4+, CD8+, CD3− lymphocytes and CD14+ monocytes” value ([6]; freshly isolated mixed cell populations) of the same substance?
Answer: equivalently transduced

Question: And the “transduction of freshly isolated primary human cells” value ([6]; nanomolar concentrations)?
Answer: rapidly and strongly transduces

Question: And the “replication of HIV viruses lacking Vpr” value (HIV-1 ΔVpr)?
Answer: significantly increases

Question: What about the “cell entry at 4° C.” value (cells [7]) of the same substance?
Answer: enters cells at 4 °C

Question: What about the “effect of urea denaturation on transduction properties” value (cells [8]) of the same substance?
Answer: does not enhance

Question: What about the “incorporation into newly produced HIV-1 virions” value (HIV-1 virions) of the same substance?
Answer: is incorporated into newly produced HIV-1 virions

Question: And the “hydrodynamic radius RH (average)” value ([1]; 50% TFE)?
Answer: 2.3 nm

Question: What about the “concentration at which no precipitation was observed” value ([9]; aqueous solution) of the same substance?
Answer: ≥ 4000 µg/mL

Question: And the “precipitation under CD solution conditions” value ([9]; phosphate buffer pH 3.9 to 7.2, water, TFE)?
Answer: no precipitation

Question: And the immunogenicity [10]?
Answer: highly immunogenic

Question: Which percent of molecules as disulfide-linked dimers [11] does the source give for “synthetic Vpr (sVpr), full-length, sequence derived from the isolate HIV-1 NL4-3 (from UniProt P12520 1-96)” here?
Answer: 10%
